pIC50, pKi: −log10 of the molar value.
Legend:
PDE5 = PDE5 (Homo sapiens, UniProt O76074); experiment: PDE panel inhibitory constant (Ki) determination; assay type: biochemical
Procedure: (§1) Inhibitory constant (Ki) values for Compound 1 were determined against a full panel of phosphodiesterase family members. […] In contrast, potency of Compound 1 for PDE1 A, B and C is roughly equivalent.

PDE6 [1] = experiment: PDE panel inhibitory constant (Ki) determination; assay type: biochemical
Procedure: as §1

PDE1A = PDE1A (Homo sapiens, UniProt P54750); experiment: PDE panel inhibitory constant (Ki) determination; assay type: biochemical
Chain of PDE1A (P54750 whole entry, species assumed): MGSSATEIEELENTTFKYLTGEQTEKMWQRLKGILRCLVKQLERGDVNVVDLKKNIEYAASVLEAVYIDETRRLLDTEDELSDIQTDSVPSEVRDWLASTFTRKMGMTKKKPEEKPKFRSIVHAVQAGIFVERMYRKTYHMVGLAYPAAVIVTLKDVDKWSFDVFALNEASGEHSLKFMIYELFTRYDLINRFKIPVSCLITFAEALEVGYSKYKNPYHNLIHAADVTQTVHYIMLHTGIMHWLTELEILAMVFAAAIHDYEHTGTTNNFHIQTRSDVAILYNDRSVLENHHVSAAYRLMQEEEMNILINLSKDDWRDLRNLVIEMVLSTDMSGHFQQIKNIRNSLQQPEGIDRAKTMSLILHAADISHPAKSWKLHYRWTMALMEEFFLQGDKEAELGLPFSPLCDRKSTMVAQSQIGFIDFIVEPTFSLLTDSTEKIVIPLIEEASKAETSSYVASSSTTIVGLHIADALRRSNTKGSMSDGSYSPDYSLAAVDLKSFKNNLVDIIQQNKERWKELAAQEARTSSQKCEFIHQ
Procedure: as §1

PDE2A = PDE2A (Homo sapiens, UniProt O00408); experiment: PDE panel inhibitory constant (Ki) determination; assay type: biochemical
Procedure: as §1

PDE6 [2] = biological target: T1, PDE6; experiment: PDE panel inhibitory constant (Ki) determination; assay type: biochemical
T1 construct: Ki; other: PDE6
Procedure: as §1

PDE11A = PDE11A (Homo sapiens, UniProt Q9HCR9); experiment: PDE panel inhibitory constant (Ki) determination; assay type: biochemical
Chain of PDE11A (Q9HCR9 whole entry, species assumed): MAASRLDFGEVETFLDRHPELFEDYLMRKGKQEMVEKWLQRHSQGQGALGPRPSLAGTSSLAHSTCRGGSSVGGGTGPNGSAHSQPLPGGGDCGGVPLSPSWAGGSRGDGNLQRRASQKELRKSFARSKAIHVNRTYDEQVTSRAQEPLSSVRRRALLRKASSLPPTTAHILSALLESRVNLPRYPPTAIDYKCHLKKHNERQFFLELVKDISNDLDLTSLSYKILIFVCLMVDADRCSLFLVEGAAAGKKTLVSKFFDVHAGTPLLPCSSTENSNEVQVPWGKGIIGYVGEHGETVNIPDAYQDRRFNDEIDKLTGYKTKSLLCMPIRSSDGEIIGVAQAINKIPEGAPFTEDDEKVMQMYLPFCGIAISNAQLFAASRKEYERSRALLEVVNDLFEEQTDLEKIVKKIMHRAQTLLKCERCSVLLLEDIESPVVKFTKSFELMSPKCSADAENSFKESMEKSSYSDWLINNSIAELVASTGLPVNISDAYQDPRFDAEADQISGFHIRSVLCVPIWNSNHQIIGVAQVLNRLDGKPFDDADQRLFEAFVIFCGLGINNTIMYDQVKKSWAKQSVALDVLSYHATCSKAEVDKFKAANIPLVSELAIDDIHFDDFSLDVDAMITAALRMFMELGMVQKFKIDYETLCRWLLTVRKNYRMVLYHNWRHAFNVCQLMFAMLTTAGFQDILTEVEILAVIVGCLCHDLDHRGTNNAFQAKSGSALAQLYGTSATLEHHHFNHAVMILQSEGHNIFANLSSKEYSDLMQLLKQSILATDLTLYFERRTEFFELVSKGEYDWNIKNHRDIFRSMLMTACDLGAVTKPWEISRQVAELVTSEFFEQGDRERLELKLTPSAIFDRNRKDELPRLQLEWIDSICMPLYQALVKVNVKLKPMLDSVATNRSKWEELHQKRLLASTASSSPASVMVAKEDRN
Procedure: as §1

PDE7B = PDE7B (Homo sapiens, UniProt Q9NP56); experiment: PDE panel inhibitory constant (Ki) determination; assay type: biochemical
Procedure: as §1

PDE4A = PDE4A (Homo sapiens, UniProt P27815); experiment: PDE panel inhibitory constant (Ki) determination; assay type: biochemical
Procedure: as §1

[3] = biological target: T2, (Homo sapiens, UniProt Q08499); experiment: PDE panel inhibitory constant (Ki) determination; assay type: biochemical; conditions: PDE1D
T2 construct: Ki; other: PDE1D
Procedure: as §1

PDE8A = PDE8A (Homo sapiens, UniProt O60658); experiment: PDE panel inhibitory constant (Ki) determination; assay type: biochemical
Chain of PDE8A (O60658 whole entry, species assumed): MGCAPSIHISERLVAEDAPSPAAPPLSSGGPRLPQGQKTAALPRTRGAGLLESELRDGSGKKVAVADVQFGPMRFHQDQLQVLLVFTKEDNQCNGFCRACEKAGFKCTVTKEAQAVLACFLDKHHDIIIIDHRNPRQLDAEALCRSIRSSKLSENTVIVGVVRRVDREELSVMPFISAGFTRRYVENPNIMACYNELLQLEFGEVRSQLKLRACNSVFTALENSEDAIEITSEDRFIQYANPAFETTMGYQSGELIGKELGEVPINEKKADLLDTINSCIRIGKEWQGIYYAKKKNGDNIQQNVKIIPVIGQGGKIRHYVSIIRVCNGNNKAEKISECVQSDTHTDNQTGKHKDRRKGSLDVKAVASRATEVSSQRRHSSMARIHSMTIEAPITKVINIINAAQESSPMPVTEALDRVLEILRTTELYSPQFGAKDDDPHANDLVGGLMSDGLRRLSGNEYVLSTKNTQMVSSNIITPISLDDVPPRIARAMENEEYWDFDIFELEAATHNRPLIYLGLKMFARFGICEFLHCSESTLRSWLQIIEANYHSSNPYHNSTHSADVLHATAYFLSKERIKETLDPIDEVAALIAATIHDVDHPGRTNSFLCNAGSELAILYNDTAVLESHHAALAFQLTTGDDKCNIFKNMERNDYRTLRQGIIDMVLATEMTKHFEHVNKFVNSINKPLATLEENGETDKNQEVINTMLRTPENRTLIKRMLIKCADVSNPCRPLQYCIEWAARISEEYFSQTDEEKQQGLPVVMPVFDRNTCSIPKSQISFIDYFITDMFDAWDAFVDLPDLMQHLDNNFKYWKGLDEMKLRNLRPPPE
Procedure: as §1

PDE1C = PDE1C (Homo sapiens, UniProt Q14123); experiment: PDE panel inhibitory constant (Ki) determination; assay type: biochemical
Chain of PDE1C (Q14123 whole entry, species assumed): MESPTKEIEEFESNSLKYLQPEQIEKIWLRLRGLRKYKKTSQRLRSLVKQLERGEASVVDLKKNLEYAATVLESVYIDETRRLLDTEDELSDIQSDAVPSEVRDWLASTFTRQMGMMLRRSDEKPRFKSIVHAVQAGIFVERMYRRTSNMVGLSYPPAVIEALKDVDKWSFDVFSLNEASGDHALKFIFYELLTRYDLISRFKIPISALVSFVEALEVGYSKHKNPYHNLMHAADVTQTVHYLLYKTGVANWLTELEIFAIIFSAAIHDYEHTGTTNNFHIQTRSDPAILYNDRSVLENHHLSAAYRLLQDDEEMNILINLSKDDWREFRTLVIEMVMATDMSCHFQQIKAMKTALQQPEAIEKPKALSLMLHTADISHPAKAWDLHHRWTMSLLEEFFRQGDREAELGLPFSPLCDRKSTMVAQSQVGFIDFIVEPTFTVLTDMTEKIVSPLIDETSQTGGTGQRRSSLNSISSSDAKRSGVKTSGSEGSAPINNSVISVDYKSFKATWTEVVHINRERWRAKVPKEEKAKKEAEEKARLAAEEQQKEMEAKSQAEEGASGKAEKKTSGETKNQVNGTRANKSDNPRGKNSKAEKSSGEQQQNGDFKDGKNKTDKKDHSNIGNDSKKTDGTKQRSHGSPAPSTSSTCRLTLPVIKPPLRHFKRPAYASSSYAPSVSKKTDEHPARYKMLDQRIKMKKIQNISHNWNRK
Procedure: as §1

PDE1B = PDE1B (Homo sapiens, UniProt Q01064); experiment: PDE panel inhibitory constant (Ki) determination; assay type: biochemical
Chain of PDE1B (Q01064 whole entry, species assumed): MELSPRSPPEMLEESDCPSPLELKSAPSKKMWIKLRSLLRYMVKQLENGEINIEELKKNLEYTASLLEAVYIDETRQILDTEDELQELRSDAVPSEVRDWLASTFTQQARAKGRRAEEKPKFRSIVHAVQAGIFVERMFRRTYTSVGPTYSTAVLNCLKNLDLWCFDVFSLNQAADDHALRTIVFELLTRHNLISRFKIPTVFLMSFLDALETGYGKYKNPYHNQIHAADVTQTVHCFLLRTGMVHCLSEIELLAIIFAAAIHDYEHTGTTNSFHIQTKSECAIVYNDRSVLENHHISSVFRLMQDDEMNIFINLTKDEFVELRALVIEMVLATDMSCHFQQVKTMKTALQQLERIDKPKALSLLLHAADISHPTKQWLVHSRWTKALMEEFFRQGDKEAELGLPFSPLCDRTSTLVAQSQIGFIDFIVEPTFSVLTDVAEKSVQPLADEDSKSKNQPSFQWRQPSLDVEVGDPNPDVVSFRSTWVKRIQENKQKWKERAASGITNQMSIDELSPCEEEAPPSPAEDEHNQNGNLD
Procedure: as §1

PDE1 (Bovine Brain) [4] = experiment: PDE panel inhibitory constant (Ki) determination; assay type: biochemical
Procedure: as §1

PDE10A = PDE10A (Homo sapiens, UniProt Q9Y233); experiment: PDE panel inhibitory constant (Ki) determination; assay type: biochemical
Procedure: as §1

PDE1 (Bovine Brain) [5] = biological target: T3, PDE1 (Bovine Brain); experiment: PDE panel inhibitory constant (Ki) determination; assay type: biochemical
T3 construct: Ki; other: PDE1 (Bovine Brain)
Procedure: as §1

PDE9A = PDE9A (Homo sapiens, UniProt O76083); experiment: PDE panel inhibitory constant (Ki) determination; assay type: biochemical
Procedure: as §1

PDE3B = PDE3B (Homo sapiens, UniProt Q13370); experiment: PDE panel inhibitory constant (Ki) determination; assay type: biochemical
Chain of PDE3B (Q13370 whole entry, species assumed): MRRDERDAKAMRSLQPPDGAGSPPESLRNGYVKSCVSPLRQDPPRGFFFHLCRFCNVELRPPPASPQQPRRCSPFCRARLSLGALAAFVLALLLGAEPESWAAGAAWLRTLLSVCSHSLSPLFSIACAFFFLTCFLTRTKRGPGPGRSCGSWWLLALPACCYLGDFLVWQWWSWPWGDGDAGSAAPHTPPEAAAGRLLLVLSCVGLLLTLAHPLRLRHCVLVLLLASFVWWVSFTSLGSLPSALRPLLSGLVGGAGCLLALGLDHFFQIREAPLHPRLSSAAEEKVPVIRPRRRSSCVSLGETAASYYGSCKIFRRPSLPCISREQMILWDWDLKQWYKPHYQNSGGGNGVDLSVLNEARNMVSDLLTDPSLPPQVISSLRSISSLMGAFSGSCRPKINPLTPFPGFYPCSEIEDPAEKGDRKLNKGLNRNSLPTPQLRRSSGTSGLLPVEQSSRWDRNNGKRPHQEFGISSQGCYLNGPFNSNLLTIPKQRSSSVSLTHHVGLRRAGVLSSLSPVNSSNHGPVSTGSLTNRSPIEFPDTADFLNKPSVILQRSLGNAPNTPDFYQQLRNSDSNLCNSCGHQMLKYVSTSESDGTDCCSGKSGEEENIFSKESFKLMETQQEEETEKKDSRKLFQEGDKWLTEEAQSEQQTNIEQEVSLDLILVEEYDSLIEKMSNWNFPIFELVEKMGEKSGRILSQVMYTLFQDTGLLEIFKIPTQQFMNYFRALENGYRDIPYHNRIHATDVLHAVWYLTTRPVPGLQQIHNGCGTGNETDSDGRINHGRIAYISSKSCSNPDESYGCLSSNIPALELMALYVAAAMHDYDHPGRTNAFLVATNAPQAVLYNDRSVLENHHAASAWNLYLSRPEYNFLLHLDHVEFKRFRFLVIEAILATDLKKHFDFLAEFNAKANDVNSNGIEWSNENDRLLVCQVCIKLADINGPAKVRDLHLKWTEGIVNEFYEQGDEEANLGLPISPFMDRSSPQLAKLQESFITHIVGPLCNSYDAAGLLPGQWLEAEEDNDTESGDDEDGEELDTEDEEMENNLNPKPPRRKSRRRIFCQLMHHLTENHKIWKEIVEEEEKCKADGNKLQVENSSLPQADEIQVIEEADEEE
Procedure: as §1

[6] = PDE panel inhibitory constant (Ki) determination; assay type: biochemical; conditions: PDE1D
Procedure: as §1

[7] = tested on: PDE1 enzymes versus all other PDE families; experiment: Selectivity over full panel of phosphodiesterase family members; assay type: biochemical
Procedure: as §1

[8] = biological target: Compound 2 binding to PDE1 in mouse cortex; experiment: EGTA titration of Compound 2 binding (calcium dependency)
Procedure: FIG. 4 illustrates Ca^2+-dependent binding of Compound 2, as defined in Example 1, to mouse cortex. Binding of the radioligand is prevented in the presence of EGTA, a specific chelator of calcium
In a further study, binding of Compound 2 (1.5 nM) to mouse cortex was titrated with different concentration of the calcium chelator EGTA to determine the calcium dependency of the ligand binding. […] Levels of binding activity remaining in the presence of excess (200 uM) EGTA was approximately 5% relative to the binding levels in the absence of EGTA.

PDE1 in striatal slices [9] = experiment: Striatal slice cGMP levels after K+ depolarization; assay type: cell-based; conditions: 1 μM compound preincubation, 1-minute high K+ depolarization
Procedure: FIG. 1 illustrates the effect of PDE1 inhibition on striatal cGMP levels. Striatal slices were preincubated with either vehicle or compound, followed by a 1-minute stimulation with high K+ or vehicle. cGMP levels were normalized to baseline levels for comparison. […] PDE1 inhibition by 1 μM ITI-041 or 1 μM ITI-214 in the presence of K+ depolarization (striped bars).
Striatal tissue slice preparations were used to further study regulation of PDE1 by intracellular calcium concentration. The striatal slice preparation maintains a portion of the circuitry of the intact striatum including interneurons, nerve terminals from cortical and nigral neuronal inputs, and medium spiny neurons, which account for the majority (95%) of neurons. Depolarization of the cell membrane by increasing external potassium (K+) concentration is a well-established method of stimulating striatal slices, particularly to trigger release of neurotransmitters such as glutamate from the nerve terminals. Under these conditions, both voltage gated calcium channels and NMDA receptors are expected to open, allowing an influx of calcium into the cells. The increase in intracellular calcium can both activate PDE1 in the medium spiny neurons and activate nitric oxide synthase (NOS) in the interneurons via calcium-calmodulin binding. […]

PDE1 in striatal slices [10] = experiment: Striatal slice cGMP levels with ionomycin; assay type: cell-based; conditions: ionomycin 10 μM alone, in Krebs buffer
Procedure: (§2) FIG. 2 illustrates that increased Ca2+ is sufficient to unmask the active site of PDE1 and allow PDE1 inhibitor binding to the active site therefore increasing cGMP. Increased intracellular calcium is sufficient to increase cGMP levels in the presence of PDE1 inhibitor.
(§3) The calcium ionophore ionomycin was used to control intracellular calcium concentrations in the absence of depolarization. Ionomycin (10 μM, in Krebs buffer) increased intracellular calcium, as confirmed by increased calcium-sensitive phosphorylation of Ca2+/calmodulin-dependent protein kinase II (CaMKII), as shown in FIG. 2A. […] Elimination of extracellular calcium by replacing the calcium chloride in the Krebs solution with 3 mM EGTA prevented the elevation in cGMP seen with PDE1 inhibition and ionomycin.

[11] = tested on: Ca2+/calmodulin-dependent protein kinase II (CaMKII); experiment: CaMKII phosphorylation (Western blotting); assay type: cell-based; conditions: ionomycin 10 μM, in Krebs buffer
Procedure: as §2, §3

## CN1C(=O)c2c(nn(Cc3ccc(C4CCCN4C)cc3)c2Nc2ccc(F)cc2)N2CC(C)(C)N=C12 (stereo not shown) [Compound 1, 3-((4-fluorophenyl)amino)-5,7,7-trimethyl-2-(4-(1-methylpyrrolidin-2-yl)benzyl)-7,8-dihydro-2H-imidazo[1,2-a]pyrazolo[4,3-e]pyrimidin-4(5H)-one]
PDE5
  pKi: 4.31
  Ratio PDEx/PDE1A: 31,595
PDE6 [1]
  Ratio PDEx/PDE1A: 9,122
PDE1A
  pKi: 8.82
  Ratio PDEx/PDE1A: 1
PDE2A
  pKi: < 4.00
  Ratio PDEx/PDE1A: >64,589
PDE6 [2]
  pKi: 4.85
PDE11A
  pKi: 4.39
  Ratio PDEx/PDE1A: 26,289
PDE7B
  pKi: 4.88
  Ratio PDEx/PDE1A: 8,448
PDE4A
  pKi: 5.18
  Ratio PDEx/PDE1A: 4,263
[3]
  pKi: 5.62
PDE8A
  pKi: < 4.00
  Ratio PDEx/PDE1A: >64,589
PDE1C
  pKi: 8.89
  Ratio PDEx/PDE1A: 0.85
PDE1B
  pKi: 8.04
  Ratio PDEx/PDE1A: 5.9
PDE1 (Bovine Brain) [4]
  Ratio PDEx/PDE1A: 0.67
PDE10A
  pKi: 4.37
  Ratio PDEx/PDE1A: 27,687
PDE1 (Bovine Brain) [5]
  pKi: 9.00
PDE9A
  pKi: < 4.00
  Ratio PDEx/PDE1A: >64,589
PDE3B
  pKi: 4.10
  Ratio PDEx/PDE1A: 50,983
[6]
  Ratio PDEx/PDE1A: 1,561
[7]
  selectivity toward all other PDE families: > 1000 fold

## O=C(O)CN(CCOCCOCCN(CC(=O)O)CC(=O)O)CC(=O)O [EGTA]
[8]; Compound 2 1.5 nM, mouse cortex, read-out: IC50 for decrease of specific binding of Compound 2
  pIC50: 5.11
[8]; FIG. 4, mouse cortex
  binding of the radioligand in the presence of EGTA: prevented
[8]; excess (200 uM) EGTA, mouse cortex
  binding activity remaining relative to absence of EGTA: approximately 5%

## CN1C(=O)c2c(nn(Cc3ccc(-c4cccc(F)n4)cc3)c2Nc2ccccc2)N2C1=N[C@@H]1CCC[C@@H]12 [ITI-214]
PDE1 in striatal slices [9]
  striatal cGMP levels: increased cyclic nucleotide levels

## C[C@H](CCC(=O)O)C[C@H](C)C[C@H](C)C(=O)/C=C(\O)[C@H](C)C[C@H](C)C/C=C/[C@@H](C)[C@@H](O)[C@@H](C)[C@@H](O)C[C@@H]1CC[C@@](C)([C@H]2CC[C@@](C)([C@@H](C)O)O2)O1 [Ionomycin, ionomycin]
PDE1 in striatal slices [10]
  striatal cGMP levels: did not lead to elevated cGMP levels
[11]
  calcium-sensitive phosphorylation of CaMKII: increased

From patent US20220184240A1, “ORGANIC COMPOUNDS” (INTRA-CELLULAR THERAPIES, INC., priority 2019, published 2022)
